Entries after “also recorded” stand apart in the source; their conditions may differ.
Key:
[1] = test system: mouse bone marrow derived macrophages (BMDMs); assay: Cytokine production in LPS-activated macrophages (ELISA, qPCR); type: cell-based
Method: Culture supernatants were harvested 24 hours (h) after LPS stimulation and analyzed for cytokine production by enzyme-linked immunosorbent assay (ELISA). Total RNA was isolated 4 h after LPS stimulation and analyzed by real time quantitative polymerase chain reaction (PCR) for IL-12p35 and IL-12/IL-23p40 genes. Data are expressed relative to levels of glyceraldehyde 3-phosphate dehydrogenase (GAPDH) levels and represent three independent experiments.
The dipeptide compounds and their relative inhibitory results on the βcomponent of the human immunoproteasome (β5i) and constitutive proteasome (β5c) are described in Examples 151 and 152.

[2] = test system: mouse bone marrow derived macrophages (BMDMs); assay: Cytotoxicity against BMDMs; conditions: concentrations up to 50 μM
[3] = biological target: hu i-20S β5i-subunit (Homo sapiens, UniProt P20618+P28062); assay: N,C-capped dipeptides IC50, Ac-ANW-AMC fluorescence assay; type: biochemical
Method: All inhibitory assays for N,C capped dipeptides were performed in a black solid-bottom 96-well plate. In general, compound plates were prepared starting from 10 mM in 3× series dilution to 15 μM. 1 μl of DMSO stock was transferred to a black 96-well plate and 100 μL of reaction mixture were added 15 μM N-acetyl-Alanine-Asparagine-Tryptophan-7-amino-4-methylcourmarin (Ac-ANW-AMC) or 25 μM succinyl-Leucine-Leucine-Valine-Tyrosine-7-amino-4-methyl-courmarin (succ-LLVY-AMC), 0.4 nM hu i-20S β5i-subunit or 0.2 nM hu c-20S β5c-subunit, 0.02% SDS, 1% BSA, 0.5 mM EDTA in 20 mM HEPES buffer at pH7.5. The plates were then spun at 1000 rpm for 1 minute, and the fluorescence units of each well were recorded at λex=360 nm, λem=460 nm for 2 hours. The slopes of the initial linear range of the time course were used to calculate the velocity, and relative activities were normalized to the velocities of the DMSO control.

[4] = test system: Karpas cells; assay: Accumulation of poly-ubiquitinylated proteins in Karpas cells (anti-ub blot); type: cell-based, human; conditions: 24 hours treatment
Method: FIGS. 5A-C show experimental results relating to SAR studies and target engagement inside the cells. FIG. 5A is a graph showing experimental results relating to inhibition of i-20S β5i and c-20S β5c by selected dipeptides. […] FIG. 5C is an image of an SDS-page gel showing accumulation of poly-ubiquitinylated (ub) proteins. Karpas cells were treated with dipeptides, or with bortezomib as a control, at indicated concentrations for 24 hours, and the poly-ub proteins in the lysates were blotted with anti-ub antibody and visualized with a second antibody directed against the first antibody and tagged with a dye that absorbs infrared light (Odyssey® CLx imaging system, LICOR).

[5] = test system: 4T1 mammary carcinoma; conditions: i.p. daily 6 mg/kg from Day 10, sacrifice Day 20; p<0.05
[6] = test system: Karpas 1106p cells; assay: Cytotoxicity (LD50) against Karpas lymphoma cells; type: cell-based, human; conditions: Table 3
From the text: Table 3 lists the inhibition kinetic parameters, selectivity index, and calculated log Ps of selected dipeptides.

[7] = test system: TNBS-induced colitis; assay: TNBS-induced colitis in mice
[8] = test system: human B-lymphoma cell line; assay: Cytotoxicity against B-lymphoma cell line; type: cell-based; conditions: concentrations up to 50 μM
[9] = test system: human peripheral blood mononuclear cells; assay: Cytotoxicity against PBMCs; type: cell-based; conditions: concentrations up to 50 μM
[10] = test system: proteasome inside the Karpas 1106p cells; assay: Cell-based Proteasome-Glo assay after compound removal; parameters: species or system human; conditions: 4 hours, read-out: Proteasome-glo β5-IC50
[11] = test system: RAW264 GFP-LC3 cells; assay: Autophagy induction in RAW264 GFP-LC3 cells; type: cell-based, mouse; conditions: 10 nM, 37° C. overnight; bafilomycin A 20 nM 4 hours
Method: Prior to fixation with 4% paraformaldehyde, the cells were treated with bafilomycin A (20 nM), an inhibitor of the late phase of autophagy, for 4 hours. Fluorescent images were recorded digitally with a multiphoton microscope. […]

[12] = test system: HepG2 human hepatoma cells; assay: Cytotoxicity against HepG2; type: cell-based; conditions: concentrations up to 50 μM
[13] = test system: mouse i-20S β5i; assay: Predicted inhibition of mouse i-20S β5i over mouse c-20S β5c; type: biochemical; conditions: predicted from sequence identity
[14] = test system: Karpas 1106p cells; assay: Cytotoxicity (LD50) against Karpas lymphoma cells; type: cell-based, human; conditions: Table 4
[15] = test system: mouse bone marrow derived macrophages (BMDMs); conditions: Muchamuel et al. 2009; cited from earlier work
[16] = test system: TNBS-induced colitis; conditions: Watanabe et al.; cited from earlier work

Compound: CC(C)(C)ONC(=O)C[C@H](NC(=O)CCc1ccccc1)C(=O)N[C@@H](Cc1ccc(F)cc1)C(=O)NCc1cccc2ccccc12 [DPLG-3]
- IL-10 production [1]: no significant effects
- sensitivity of IL-12 and IL-23 production vs TNF-α (factor) [1]: 10-20
- production of IL-12 ([1]; LPS 1 μg/ml, 24 h, ELISA): dose-dependently inhibited
- production of IL-12/IL-23p40 ([1]; LPS 1 μg/ml, 24 h, ELISA): dose-dependently inhibited
- production of TNF-α ([1]; LPS 1 μg/ml, 24 h, ELISA): dose-dependently inhibited
- transcription of P35 and P40 ([1]; mRNA 4 h after LPS, qPCR relative to GAPDH): reduced
- IL-6 production ([1]; on its own): dose-dependently induced
- cytotoxicity [2]: not cytotoxic
- mode of inhibition [3]: competitive inhibition
- accumulation of poly-ubiquitinylated proteins [4]: did not cause accumulation
- tumor size and weight [5]: reducing the size and weight
- LD50 [6]: 2.04 µM
- adverse effects ([7]; I.P. 3-12 mg/kg, TNBS mice): did not cause detectable adverse effects
- colitis-induced weight loss ([7]; I.P. at day −1, 1 and 3, 3, 6 and 12 mg/kg, dose-dependent): strongly inhibited colitis-induced weight loss
- colitis-induced weight loss / pathogenesis ([7]; one-time i.v. injection (6 mg/kg) at time of TNBS challenge, WT mice): strongly inhibited colitis-associated pathogenesis; also recorded: strongly inhibited colitis-induced weight loss
- cytotoxicity [8]: not cytotoxic
- cytotoxicity [9]: not cytotoxic
- IC50 [10]: 110 nM
- induction of autophagy [11]: induces autophagy
- cytotoxicity [12]: not cytotoxic
- inhibition of mouse i-20S β5i over mouse c-20S β5c [13]: potently and selectively inhibit
- LD50 Karpas [14]: 2.04 µM

Compound: COc1ccc(C[C@H](NC(=O)[C@H](C)NC(=O)CN2CCOCC2)C(=O)N[C@@H](Cc2ccccc2)C(=O)[C@]2(C)CO2)cc1 [ONX 0914]
- effect on cytokines analyzed [15]: inhibitory

Compound: CC(=O)N[C@H]1C(O)O[C@H](CO)[C@@H](O)[C@@H]1O[C@H](C)C(=O)N[C@@H](C)C(=O)N[C@H](CCC(=O)O)C(N)=O (mixture of isomers) [MDP, muramyl dipeptide]
- protection from colitis [16]: protected mice from colitis
